Test results from the supplement of paper PMC10307832.

What was measured:
Experiment in all cases: relative viability (nuclei count vs DMSO), 5 days (fraction); higher = more cells survive
201T = test system: 201T
Method in brief: (§1)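 Five library-drug doses in √10 steps were combined with a fixed anchor-drug dose, or a single drug was given alone, by pin tool to lung cancer cell lines in 1536-well plates the day after seeding. Nuclei were stained and counted after 5 days. Relative viability is the nuclei count in treated wells over that in vehicle wells, taken as the median of duplicate plates.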

BEN = test system: BEN
Method in brief: as §1

HCC-366 = test system: HCC-366
Method in brief: as §1

HCC-44 = test system: HCC-44
Method in brief: as §1

HCC-78 = test system: HCC-78
Method in brief: as §1

LK-2 = test system: LK-2
Method in brief: as §1

LOU-NH91 = test system: LOU-NH91
Method in brief: as §1

NCI-H1355 = test system: NCI-H1355
Method in brief: as §1

NCI-H1650 = test system: NCI-H1650
Method in brief: as §1

NCI-H1666 = test system: NCI-H1666
Method in brief: as §1

NCI-H1734 = test system: NCI-H1734
Method in brief: as §1

NCI-H1755 = test system: NCI-H1755
Method in brief: as §1

NCI-H2009 = test system: NCI-H2009
Method in brief: as §1

NCI-H2228 = test system: NCI-H2228
Method in brief: as §1

NCI-H2347 = test system: NCI-H2347
Method in brief: as §1

NCI-H2405 = test system: NCI-H2405
Method in brief: as §1

NCI-H358 = test system: NCI-H358
Method in brief: as §1

NCI-H520 = test system: NCI-H520
Method in brief: as §1

NCI-H727 = test system: NCI-H727
Method in brief: as §1

NCI-H838 = test system: NCI-H838
Method in brief: as §1

SW 1573 = test system: SW 1573
Method in brief: as §1

UMC-11 = test system: UMC-11
Method in brief: as §1

## O=C(O)CCCCC(CCSCc1ccccc1)SCc1ccccc1 (centres undefined) [CPI-613] + CC(=O)Nc1cccc(-n2c(=O)n(C3CC3)c(=O)c3c(Nc4ccc(I)cc4F)n(C)c(=O)c(C)c32)c1 [Trametinib] (partner 0.02 µM)
201T; first compound 5 µM
  relative viability: 0.709
201T; first compound 15.81 µM
  relative viability: 0.701
201T; first compound 50 µM
  relative viability: 0.668
201T; first compound 158.11 µM
  relative viability: 0.421
201T; first compound 500 µM
  relative viability: 0.408
BEN; first compound 5 µM
  relative viability: 1.14
BEN; first compound 15.81 µM
  relative viability: 0.976
BEN; first compound 50 µM
  relative viability: 0.958
BEN; first compound 158.11 µM
  relative viability: 0.804
BEN; first compound 500 µM
  relative viability: 0.905
HCC-366; first compound 5 µM
  relative viability: 0.367
HCC-366; first compound 15.81 µM
  relative viability: 0.321
HCC-366; first compound 50 µM
  relative viability: 0.29
HCC-366; first compound 158.11 µM
  relative viability: 0.12
HCC-366; first compound 500 µM
  relative viability: 0.0064
HCC-44; first compound 5 µM
  relative viability: 1.04
HCC-44; first compound 15.81 µM
  relative viability: 1.03
HCC-44; first compound 50 µM
  relative viability: 1.08
HCC-44; first compound 158.11 µM
  relative viability: 0.649
HCC-44; first compound 500 µM
  relative viability: 0.62
HCC-78; first compound 15.81 µM
  relative viability: 0.729
HCC-78; first compound 50 µM
  relative viability: 0.788
HCC-78; first compound 158.11 µM
  relative viability: 0.714
HCC-78; first compound 500 µM
  relative viability: 0.716
LK-2; first compound 5 µM
  relative viability: 0.702
LK-2; first compound 15.81 µM
  relative viability: 0.786
LK-2; first compound 50 µM
  relative viability: 0.93
LK-2; first compound 158.11 µM
  relative viability: 0.856
LK-2; first compound 500 µM
  relative viability: 0.792
LOU-NH91; first compound 5 µM
  relative viability: 0.767
LOU-NH91; first compound 15.81 µM
  relative viability: 0.723
LOU-NH91; first compound 50 µM
  relative viability: 0.775
LOU-NH91; first compound 158.11 µM
  relative viability: 0.775
LOU-NH91; first compound 500 µM
  relative viability: 0.674
NCI-H1355; first compound 5 µM
  relative viability: 0.44
NCI-H1355; first compound 15.81 µM
  relative viability: 0.409
NCI-H1355; first compound 50 µM
  relative viability: 0.42
NCI-H1355; first compound 158.11 µM
  relative viability: 0.27
NCI-H1355; first compound 500 µM
  relative viability: 0.112
NCI-H1650; first compound 5 µM
  relative viability: 0.546
NCI-H1650; first compound 15.81 µM
  relative viability: 0.548
NCI-H1650; first compound 50 µM
  relative viability: 0.537
NCI-H1650; first compound 158.11 µM
  relative viability: 0.168
NCI-H1650; first compound 500 µM
  relative viability: 0.0145
NCI-H1666; first compound 5 µM
  relative viability: 0.888
NCI-H1666; first compound 15.81 µM
  relative viability: 0.821
NCI-H1666; first compound 50 µM
  relative viability: 0.796
NCI-H1666; first compound 158.11 µM
  relative viability: 0.488
NCI-H1666; first compound 500 µM
  relative viability: 0.394
NCI-H1734; first compound 5 µM
  relative viability: 0.615
NCI-H1734; first compound 15.81 µM
  relative viability: 0.631
NCI-H1734; first compound 50 µM
  relative viability: 0.593
NCI-H1734; first compound 158.11 µM
  relative viability: 0.482
NCI-H1734; first compound 500 µM
  relative viability: 0.101
NCI-H1755; first compound 5 µM
  relative viability: 0.712
NCI-H1755; first compound 15.81 µM
  relative viability: 0.775
NCI-H1755; first compound 50 µM
  relative viability: 0.75
NCI-H1755; first compound 158.11 µM
  relative viability: 0.702
NCI-H1755; first compound 500 µM
  relative viability: 0.69
NCI-H2009; first compound 5 µM
  relative viability: 0.319
NCI-H2009; first compound 15.81 µM
  relative viability: 0.257
NCI-H2009; first compound 50 µM
  relative viability: 0.302
NCI-H2009; first compound 158.11 µM
  relative viability: 0.081
NCI-H2009; first compound 500 µM
  relative viability: 0.027
NCI-H2228; first compound 5 µM
  relative viability: 0.549
NCI-H2228; first compound 15.81 µM
  relative viability: 0.393
NCI-H2228; first compound 50 µM
  relative viability: 0.343
NCI-H2228; first compound 158.11 µM
  relative viability: 0.452
NCI-H2228; first compound 500 µM
  relative viability: 0.052
NCI-H2347; first compound 5 µM
  relative viability: 0.256
NCI-H2347; first compound 15.81 µM
  relative viability: 0.232
NCI-H2347; first compound 50 µM
  relative viability: 0.259
NCI-H2347; first compound 158.11 µM
  relative viability: 0.22
NCI-H2347; first compound 500 µM
  relative viability: 0.206
NCI-H2405; first compound 5 µM
  relative viability: 0.633
NCI-H2405; first compound 15.81 µM
  relative viability: 0.633
NCI-H2405; first compound 50 µM
  relative viability: 0.619
NCI-H2405; first compound 158.11 µM
  relative viability: 0.494
NCI-H2405; first compound 500 µM
  relative viability: 0.479
NCI-H358; first compound 5 µM
  relative viability: 0.132
NCI-H358; first compound 15.81 µM
  relative viability: 0.133
NCI-H358; first compound 50 µM
  relative viability: 0.132
NCI-H358; first compound 158.11 µM
  relative viability: 0.0921
NCI-H358; first compound 500 µM
  relative viability: 0.0459
NCI-H520; first compound 5 µM
  relative viability: 0.691
NCI-H520; first compound 15.81 µM
  relative viability: 0.708
NCI-H520; first compound 50 µM
  relative viability: 0.552
NCI-H520; first compound 158.11 µM
  relative viability: 0.16
NCI-H520; first compound 500 µM
  relative viability: 0.0957
NCI-H727; first compound 5 µM
  relative viability: 0.393
NCI-H727; first compound 15.81 µM
  relative viability: 0.389
NCI-H727; first compound 50 µM
  relative viability: 0.396
NCI-H727; first compound 158.11 µM
  relative viability: 0.374
NCI-H727; first compound 500 µM
  relative viability: 0.339
NCI-H838; first compound 5 µM
  relative viability: 0.514
NCI-H838; first compound 15.81 µM
  relative viability: 0.461
NCI-H838; first compound 50 µM
  relative viability: 0.468
NCI-H838; first compound 158.11 µM
  relative viability: 0.232
NCI-H838; first compound 500 µM
  relative viability: 0.065
SW 1573; first compound 5 µM
  relative viability: 0.557
SW 1573; first compound 15.81 µM
  relative viability: 0.433
SW 1573; first compound 50 µM
  relative viability: 0.482
SW 1573; first compound 158.11 µM
  relative viability: 0.133
SW 1573; first compound 500 µM
  relative viability: 0.0735
UMC-11; first compound 5 µM
  relative viability: 0.632
UMC-11; first compound 15.81 µM
  relative viability: 0.703
UMC-11; first compound 50 µM
  relative viability: 0.437
UMC-11; first compound 158.11 µM
  relative viability: 0.495
UMC-11; first compound 500 µM
  relative viability: 0.0937
